The results in this text go back to patent US8663473B2, “Digestion of biosolids in wastewater” (BCR Environmental Corporation, priority 2009, dated 2014).

In assay [1] the test system is Waste activated sludge (WAS). The assay is described as follows: WAS solubilization by chlorine dioxide: soluble COD, NH4 and PO4 release over contact time. The note with it: for soluble COD concentration: contact time 24 h, WAS approx. 7 g/L solids. As to the method: Waste activated sludge (WAS) was obtained from a local municipal WWTP which removes cBOD only and uses a pure oxygen system. In order to achieve similar experiment conditions and be consistent with the previous pilot experiment, the solids concentration was adjusted to approximately 7 g/L. Three digesters were set up and treated with chlorine dioxide dosages of 100, 150 and 200 mg/L respectively. The digesters were operated for 24 hours. Samples were taken at time intervals of 10 min, 1 h, 6 h, 12 h and 24 h to represent different contact time.
This confirmed that chlorine dioxide contact time is the key factor for WAS solubilization. The increased soluble COD concentration can be expressed as 10-11% of TCOD which is quite significant. It was also observed that soluble COD concentration at contacting time of 6 hr was approximately 55-66% of the soluble COD at time 24 hrs. […] The increase of soluble COD corresponded to the volatile solids destruction of 4-6% with different chlorine dioxide treatment dosage.
This is considered insignificant. The PO4 increase was much higher and equaled 16 to 28.3 mg P/L after 24 h. Higher phosphorus than nitrogen release can be attributed to the chlorine dioxide treatment which breaks down the cell walls resulting in the release of unbound orthophosphate PO4—P. The nitrogen in the cells is in the form of organic nitrogen (amino acids) and enzymes are required to convert organic nitrogen to ammonia nitrogen. The low pH resulting from the chlorine dioxide treatment may have deactivated the enzyme activity, therefore no/insignificant NH4—N increase was detected.

The subject of assay [2] is anaerobic digester. Kind of assay: Methane production in anaerobic digestion of chlorine dioxide pre-treated sludge. On the procedure:
Treatment of non-digested wastewater sludge with chlorine dioxide to solubilized the sludge and make nutrients bio-available and then feeding this material into an established anaerobic digester once the chlorine dioxide residual has been reduced improves gas (methane) production in an anaerobic digester. A generally accepted estimate for methane production at 35° C. is 0.25 kg methane per kg COD consumed. One kmol of methane is equivalent with a mass of 16 kg. Per definition, the COD equivalent of 1 kmol of methane is the mass of the amount of oxygen required for complete oxidation according to the formula: CH4+2O2→CO2+2H2O The mass of the 2 O2 is 2 kmol of oxygen or 64 kg. Thus 64 kg Oxygen Demand is equivalent with 16 kg of methane, or 1 kg of oxygen demand (COD) is equivalent with 16/64=0.25 kg methane.
This increase in soluble COD represents 10-11% of the total COD concentration of the sludge, and represents a 2000% increase in soluble COD. The inventors believe that the higher the s-COD the higher capacity for methane production. The resulting increase in methane production as a result of this enhancement of anaerobic digestion has been measured as a greater than 50% increase utilizing this method, and is expected to be in the range of 100% or more over non-pretreated WAS. […]

For assay [3], the system named is fecal coliform bacteria. The assay is described as follows: Secondary sludge full-scale test: fecal coliform reduction at varying dose rates of chlorine dioxide. The format is cell-based. The note with it: for Fecal coliform: sludge, 10 minutes contact time. As to the method: Treatment of non-digested wastewater sludge with chlorine dioxide allows the material to meet Class B pathogen reduction requirements prior to digestion by reducing the fecal coliform concentrations to levels much lower than the Class B standard (<2,000,000 fecal coliform bacteria) with less than 15 minutes contact time. The resulting biosolids cake has no odor.
In this test, chlorine dioxide was generated on-site, and was injected (at varying concentrations) into a 100 gpm sludge flow passing through a 4 inch diameter pipe. The pipe length was sufficient to allow 10 minutes of contact time between the sludge and the chlorine dioxide prior to dewatering the material.

With `[O][Cl+][O-]` [chlorine dioxide], the NH4 increase in assay [1] (all chlorine dioxide treatments) was 3-5.2 mg N/L. Moreover, the results for the “soluble COD concentration” value in assay [1] (chlorine dioxide dosage 100 mg/L), in assay [1] (chlorine dioxide dosage 150 mg/L) and in assay [1] (chlorine dioxide dosage 200 mg/L) were 913 mg/L, 984 mg/L and 965 mg/L, respectively. Also, the volatile solids destruction in assay [1] (different chlorine dioxide treatment dosages) was 4-6%. The “soluble COD at contact time 6 hr as % of soluble COD at 24 hrs” value in assay [1] (dosages 100-200 mg/L) is reported as 55-66%. Further, the “increase in soluble COD” value in assay [1] (dosages 100-200 mg/L, 24 h) worked out at 2000%. Further, the “increased soluble COD expressed as % of total COD (TCOD)” value in assay [1] (dosages 100-200 mg/L, 24 h) is recorded as 10-11%. The “expected increase in methane production” value in assay [2] (over non-pretreated WAS, expected) is not below 100%. Besides, the “increase in methane production” value in assay [2] (versus non-pretreated WAS) is “greater than 50%”. For the same compound, the “fecal coliform concentrations relative to Class B standard” value in assay [3] (non-digested wastewater sludge, less than 15 minutes contact time) was < 2,000,000. The Fecal coliform in assay [3] (dose rate ClO2 32 mg/L) is listed as 3.32 × 10^5 MPN/g; in assay [3] (dose rate ClO2 48 mg/L) it was 123,000 MPN/g; in assay [3] (dose rate ClO2 64 mg/L), 1,800 MPN/g; in assay [3] (dose rate ClO2 80 mg/L), “BDL”; in assay [3] (dose rate ClO2 96 mg/L) it was “BDL”; in assay [3] (dose rate ClO2 128 mg/L), “BDL”. Further, the Fecal coliform result in assay [3] (dose rate ClO2 160 mg/L) is given as “BDL*”.
